The values below come from article PMC11214487, “YZL-51N functions as a selective inhibitor of SIRT7 by NAD^+ competition to impede DNA damage repair” (iScience, 2024).

Experiment [1] deals with SIRT1/2/3/5/6. Description: Sirtuin deacetylation assay (fluorometric ELISA kit), other sirtuins. To be noted: different concentrations. In kind it is biochemical, human. The text has this:
To determine the selectivity of YZL-51N, we assessed its inhibitory activity against recombinant human sirtuins expressed in E. coli through deacetylation assays in vitro (Figures 2A and 2B). […] We next validated the direct interaction between YZL-51N and SIRT1/2/6/7 using bio-layer interferometry (BLI) assays to compare their binding affinities. […] To gain insights into the ability of YZL-51N to affect sirtuin thermostability, we conducted protein thermal shift assays. At a concentration of 10 μM, YZL-51N caused shifts in the melting curves for SIRT7, SIRT6 and SIRT1 of 2.86°C, 1.0°C and 0.45°C (Figures S7A–S7C). In addition, we observed a dose-dependent increase in the ΔTm for SIRT7 following YZL-51N treatment (Figures 2F and 2G). Taken together, these findings confirm that YZL-51N is a selective inhibitor of SIRT7.
Deacetylase activity of 10 μg purified SIRT proteins was assessed using the Sirtuin Activity Assay Kit (BioVision, Cat#K324-100, USA) according to the manufacturer’s instructions. The fluorescence intensity (Ex/Em = 400/505 nm) was measured using a microplate reader (Synergy H4 Hybrid Reader, Biotek) in the end-point mode.
In general terms: In an ELISA, binding on a coated surface is turned into a signal by an enzyme label.

For experiment [2], the target named is T1, SIRT7 (Homo sapiens, UniProt Q9NRC8).
T1 construct: His-tagged full length SIRT7 protein expression from BL21 bacterial cells; His; made in house; host or cells: E. coli BL21
T1 sequence (Q9NRC8 1-400): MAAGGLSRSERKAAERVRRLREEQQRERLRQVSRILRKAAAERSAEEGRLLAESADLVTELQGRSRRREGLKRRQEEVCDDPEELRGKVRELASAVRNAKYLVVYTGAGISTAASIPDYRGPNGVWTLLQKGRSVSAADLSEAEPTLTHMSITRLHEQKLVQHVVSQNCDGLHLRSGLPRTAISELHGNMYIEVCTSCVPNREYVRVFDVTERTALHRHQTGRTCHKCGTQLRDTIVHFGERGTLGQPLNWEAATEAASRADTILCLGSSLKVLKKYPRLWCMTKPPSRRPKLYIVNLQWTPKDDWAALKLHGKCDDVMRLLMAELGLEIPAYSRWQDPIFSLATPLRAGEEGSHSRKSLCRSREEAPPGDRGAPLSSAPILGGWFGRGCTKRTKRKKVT
The experiment is described as follows: Bio-layer interferometry (BLI) binding assay. To be noted: 0-40 μM, PBST pH 7.4. The procedure: The binding affinity of SIRT1/2/6/7 with YZL-51N was determined using Super Streptavidin (SSA) biosensors in an Octet Red 96 instrument (ForteBio Inc., Menlo Park, CA, United States). Briefly, the biotinylated SIRT1/2/6/7 proteins were immobilized onto the surface of SSA biosensors. Increasing concentrations of YZL-51N were allowed to flow through the chips at room temperature in PBST buffer (pH 7.4). Assays were performed in black 96-well flat bottom plates on a shaker at 1000 r/min. The association and dissociation of YZL-51N with SIRT1/2/6/7 were measured for 300 s. Kinetic parameters and affinities were calculated from a non-linear global fit of the data between YZL-51N and SIRT1/2/6/7 using Octet Data Analysis software version 7.0 (Fortebio).
On the technique in general: BLI is a label-free optical method that tracks binding on a fibre tip over time.

The target of experiment [3] is T1, SIRT7. Description: Protein thermal shift assay. Type of experiment: binding. The settings on record: 10 μM. The procedure: The mixture containing SIRT1, SIRT6 or SIRT7 proteins, SYPRO Orange, compounds and buffer (100 mM Tris-HCl, 40 mM NaCl, 10 mM MgCl2, pH=7.4) were added into 0.2 mL PCR tubes for a total volume of 20 μL and placed in an ABI ViiA 7 Real-time PCR System. The temperature ranging from 35.0 to 75.0°C was increased at a rate of 0.5°C/s and the fluorescence intensity was monitored in the ROX channel.

Experiment [4] addresses T1, SIRT7. Description: Surface plasmon resonance (SPR) binding assay. The procedure:
All SPR measurements were performed on Biacore T200 instrument (GE Healthcare) with running buffer (PBS+5% DMSO) at room temperature. The bacterially purified His-SIRT7 was covalently immobilized onto Series S Sensor Chip CM5 by a standard amino-coupling procedure in 10 mM sodium acetate (pH 5.5). Two-fold serial dilutions of YZL-51N or NAD^+ in 5% DMSO passed through the sensor chip at 30 μL/min for 120 s, followed by 240 s of dissociation flow. The KD value was calculated based on the concentration dependence of the observed steady-state response using Biacore T200 Evaluation software Version 1.0 (GE Healthcare).

The subject of experiment [5] is HCT116. Description: CCK-8 cell proliferation assay. To be noted: Homo sapiens, HCT-116; HCT116, 48 h. In kind it is cell-based. How it is done: (§1) The plate was added with 10 μL CCK-8 solution to each well and incubated for 2 h at 37°C. The absorbance was measured at 450 nm using a microtiter plate reader (BioTek).
The test system of experiment [6] is HT29. The experiment is described as follows: CCK-8 cell proliferation assay. To be noted: Homo sapiens, HT-29; HT29, 48 h. Type of experiment: cell-based. How it is done: as §1
In general terms: Formazan colour is commonly taken as a measure of viable cells.

Experiment [7] concerns SW620. The experiment is described as follows: CCK-8 cell proliferation assay. To be noted: Homo sapiens, SW-620; SW620, 48 h. Type of experiment: cell-based. The procedure: as §1
The target in experiment [8] is SIRT6 (Homo sapiens, UniProt Q8N6T7). Description: Cellular thermal shift assay in HCT116 cell lysates. The settings on record: 20 μM. Also noted: endogenous in cells; host or cells: HCT116. Type of experiment: binding. How it is done: Cellular thermal shift assays were performed according to previously reported methods with some modifications.[66] Briefly, HCT116 cells were lysed with RIPA buffer and incubated with 20 μM YZL-51N or DMSO for 1 h on ice. Subsequently, cell lysates were divided into 70 μL aliquots and heated individually at different temperatures for 4 min following by cooling on ice. The heated lysates were centrifuged, and 50 μL supernatants were taken for SDS-PAGE and immunoblotting analysis with the indicated antibodies.
Sequence of SIRT6 (Q8N6T7 whole entry): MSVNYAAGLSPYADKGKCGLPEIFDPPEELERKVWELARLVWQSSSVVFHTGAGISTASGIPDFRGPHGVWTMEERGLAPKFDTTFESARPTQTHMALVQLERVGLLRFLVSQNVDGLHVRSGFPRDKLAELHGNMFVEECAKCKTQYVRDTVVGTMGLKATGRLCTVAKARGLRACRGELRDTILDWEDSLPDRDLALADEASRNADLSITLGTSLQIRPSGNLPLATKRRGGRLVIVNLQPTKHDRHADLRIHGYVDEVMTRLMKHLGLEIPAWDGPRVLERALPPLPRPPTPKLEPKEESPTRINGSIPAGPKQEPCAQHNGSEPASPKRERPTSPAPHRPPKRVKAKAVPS

As to `COC(=O)/C(=C\C(=O)c1ccc(O)c(O)c1)c1ccc(O)c(O)c1` [YZL-51N], the “Inhibition of deacetylase activities of other sirtuins” value in experiment [1] was “did not inhibit”. Moreover, the results for the Kd in experiment [2] and in experiment [4] (immobilized His-SIRT7) were 3.3 µM and 1020 nM, respectively. The “Shift in the melting curve” value in experiment [3] came to 2.86 °C. Besides, the “disassociation rate (koff)” value in experiment [4] came to 0.0006315 s⁻¹. Besides, the kon – broadly, the second-order rate constant of association – in experiment [4] (read-out: association rate (kon)) came out at 618 M⁻¹ s⁻¹. Moreover, the IC50 (usually the midpoint of a concentration-inhibition curve) was 37.5 µM in experiment [5], 47.5 µM in experiment [6] and 28.6 µM in experiment [7]. Besides, the “Effect on the melting curve” value in experiment [8] is recorded as “no obvious effect”.
